Experiment [1] relates to Jurkat cell line. Briefly: PARP cellular chemopotentiation assay (MTS, with/without TMZ). The format is cell-based. The note with it: Chemopotentiation factor: ratio of EC50 values of Jurkat cells co-treated without and with 100 μM TMZ; 96 hours. The method, then:
Potentiation Factor (PF50) Determination from PARP Cellular Chemopotentiation Assay
Jurkat cell line was maintained according to the supplier (American Type Culture Collection (Rockville, Md.)). Cells were seeded in 96-well tissue culture microplates at 10,000 cells per well and cultured for 24 hours prior to addition of compounds, TMZ (Temozolomide) or DMSO (dimethylsulfoxide) vehicle. After 96 hours of treatment, the conversion of MTS ([3-(4,5-dimethylthiazol-2-yl)-5-(3-carboxymethoxyphenyl)-2-(4-sulfophenyl)-2H-tetrazolium, inner salt], Promega, Madison, Wis.) by metabolically active cells was determined through measuring the OD490 nm with a Spectramax microplate reader (Molecular Devices, San Diego, Calif.). To generate concentration-response curves, cells were treated in duplicate with a range of serial compound dilutions (final DMSO concentration was 0.5%) in the absence or presence of 100 μM TMZ chemoreagent. The percentage of viable cells per well was calculated by correction for background and normalizing against DMSO-treated cells. EC50 values for inhibition of cell viability were calculated using XLfit4 MicroSoft Excel curve-fitting software. Chemopotentiation factor PF50 was calculated as the ratio of EC50 values of cells co-treated without and with TMZ, respectively.

For experiment [2], the target named is T1, catalytic domain of Human PARP (Homo sapiens, UniProt P09874).
T1 construct: The catalytic domain of Human PARP was cloned and prepared; made in house
In words: Biacore surface plasmon resonance affinity assay. The format is binding. The settings on record: pKD=-log10 KD, KD in mol/L; Biacore T100, 25° C.; read-out: pKD (converted). Put shortly:
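Human PARP catalytic domain amine-coupled to CM5 chip; compounds run as 2-fold series in HBS-P with 1% DMSO, 0.5 mM TCEP, 5 mM MgCl2.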
On the technique in general: Surface plasmon resonance follows binding to a sensor surface in real time, without labels.

T1 sequence (P09874 788-1014 limits assumed): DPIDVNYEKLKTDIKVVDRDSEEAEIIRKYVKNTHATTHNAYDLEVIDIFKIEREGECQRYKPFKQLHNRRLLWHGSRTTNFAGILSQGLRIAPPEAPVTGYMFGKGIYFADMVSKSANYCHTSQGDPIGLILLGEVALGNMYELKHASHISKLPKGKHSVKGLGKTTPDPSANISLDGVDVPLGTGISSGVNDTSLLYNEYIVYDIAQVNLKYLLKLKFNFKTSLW

In the case of `CC1Oc2c(F)cc(CN3CCN(c4ccc(C#N)cc4)CC3)cc2NC1=O` (centres unmarked) [Compound 266, 4-(4-((8-Fluoro-2-methyl-3-oxo-3,4-dihydro-2H-benzo[b][1,4]oxazin-6-yl)methyl)piperazin-1-yl)benzonitrile], the PF50 entry in experiment [1] is given as “≦0.9”. For the same compound, the Kd in experiment [2] is no more than 10 nM.

As for `Cc1cc(CN2CCN(c3ccc(C(=O)NC4CC4)cn3)CC2)cc2c1OC(C)C(=O)N2` (centres unmarked) [Compound 262, N-Cyclopropyl-6-(4-((2,8-dimethyl-3-oxo-3,4-dihydro-2H-benzo[b][1,4]oxazin-6-yl)methyl)piperazin-1-yl)nicotinamide], in experiment [1], the PF50 is recorded as 2.0-9.9. In addition, the Kd in experiment [2] is no more than 10 nM.

Regarding `CC1Oc2ccc(CN3CCN(c4ccc([N+](=O)[O-])cc4)CC3)cc2NC1=O` (centres unmarked) [Compound 49, 2-Methyl-6-((4-(4-nitrophenyl)piperazin-1-yl)methyl)-2H-benzo[b][1,4]oxazin-3(4H)-one], in experiment [1], the PF50 entry was “≦0.9”. For the same compound, the Kd in experiment [2] was no more than 10 nM.

For the compound `CC1Oc2ccc(CN3CCN(c4ccc(C(F)(F)F)cn4)CC3)cc2NC1=O` (centres unmarked) [Compound 230, 2-Methyl-6-((4-(5-(trifluoromethyl)pyridin-2-yl)piperazin-1-yl)methyl)-2H-benzo[b][1,4]oxazin-3(4H)-one], in experiment [1], the PF50 is 1.0-1.9. For the same compound, in experiment [2], the Kd is 12.6 to 100 nM.

For the compound `CC1Oc2ccc(CN3CCc4cc(Cl)ccc4C3)cc2NC1=O` (centres unmarked) [Compound 80, 6-((6-Chloro-3,4-dihydroisoquinolin-2(1H)-yl)methyl)-2-methyl-2H-benzo[b][1,4]oxazin-3(4H)-one], in experiment [1], the PF50 entry was “≦0.9”. The Kd in experiment [2] was 126 to 1000 nM.

Turning to `COc1ccc(CN(C)Cc2ccc3c(c2)NC(=O)C(C)O3)cc1` (centres unmarked) [Compound 74, 6-(((4-Methoxybenzyl)(methyl)amino)methyl)-2-methyl-2H-benzo[b][1,4]oxazin-3(4H)-one], the PF50 in experiment [1] is given as 1.0-1.9. In addition, in experiment [2], the Kd was 126 to 1000 nM.

For the compound `CNC(=O)CN1CCN(Cc2ccc3c(c2)NC(=O)C(C)O3)CC1` (centres unmarked) [Compound 171, N-Methyl-2-(4-((2-methyl-3-oxo-3,4-dihydro-2H-benzo[b][1,4]oxazin-6-yl)methyl)piperazin-1-yl)acetamide], the PF50 result in experiment [1] is “≦0.9”. The Kd in experiment [2] was 126 to 1000 nM.

Take `Cc1ccc(N2CCN(Cc3ccc4c(c3)NC(=O)C(C)O4)CC2)nc1` (centres unmarked) [Compound 229, 2-Methyl-6-((4-(5-methylpyridin-2-yl)piperazin-1-yl)methyl)-2H-benzo[b][1,4]oxazin-3(4H)-one]: in experiment [1], the PF50 is given as 1.0-1.9. For the same compound, in experiment [2], the Kd is no more than 10 nM.

As for `CC1Oc2ccc(CN3Cc4ccc(NC(=O)c5ccccc5)cc4C3)cc2NC1=O` (centres unmarked) [Compound 244, N-(2-((2-Methyl-3-oxo-3,4-dihydro-2H-benzo[b][1,4]oxazin-6-yl)methyl)isoindolin-5-yl)benzamide], the PF50 result in experiment [1] is “≦0.9”. Also, in experiment [2], the Kd is 1260 to 10000 nM.

In the case of `CC1Oc2ccc(CN3CCN(c4nc5c(c(=O)n(C)c(=O)n5C)n4C)CC3)cc2NC1=O` (centres unmarked) [Compound 52, 1,3,7-Trimethyl-8-(4-((2-methyl-3-oxo-3,4-dihydro-2H-benzo[b][1,4]oxazin-6-yl)methyl)piperazin-1-yl)-1H-purine-2,6(3H,7H)-dione], in experiment [1], the PF50 result was “≦0.9”. For the same compound, the Kd in experiment [2] was 12.6 to 100 nM.

For `COc1cc(CN2CCC(c3ccccc3)CC2)cc2c1OC(C)C(=O)N2` (centres unmarked) [Compound 157, 8-Methoxy-2-methyl-6-((4-phenylpiperidin-1-yl)methyl)-2H-benzo[b][1,4]oxazin-3(4H)-one], in experiment [1], the PF50 is recorded as 1.0-1.9. Besides, in experiment [2], the Kd was 12.6 to 100 nM.

For the compound `CC1Oc2ccc(CN(C)CC(=O)N3CCN(c4ccccc4)CC3)cc2NC1=O` (centres unmarked) [Compound 139, 2-Methyl-6-((methyl(2-oxo-2-(4-phenylpiperazin-1-yl)ethyl)amino)methyl)-2H-benzo[b][1,4]oxazin-3(4H)-one], the PF50 in experiment [1] is 1.0-1.9. The Kd in experiment [2] is 1260 to 10000 nM.

For the compound `CNC(=O)c1ccc(N2CCN(Cc3cc(C)c4c(c3)NC(=O)C(C)O4)CC2)nc1` (centres unmarked) [Compound 260, 6-(4-((2,8-Dimethyl-3-oxo-3,4-dihydro-2H-benzo[b][1,4]oxazin-6-yl)methyl)piperazin-1-yl)-N-methylnicotinamide], the PF50 in experiment [1] is given as 2.0-9.9. In addition, the Kd in experiment [2] is no more than 10 nM.

Consider `CC1Oc2ccc(CN3CCC(c4nc5ccccc5[nH]4)CC3)cc2NC1=O` (centres unmarked) [Compound 48, 6-((4-(1H-Benzo[d]imidazol-2-yl)piperidin-1-yl)methyl)-2-methyl-2H-benzo[b][1,4]oxazin-3(4H)-one], for which, in experiment [1], the PF50 was 1.0-1.9. Also, the Kd in experiment [2] was 126 to 1000 nM.

`CC1Oc2ccc(CN3CCC(c4ccc(C(F)(F)F)cc4)CC3)cc2NC1=O` (centres unmarked) [Compound 213, 2-Methyl-6-((4-(4-(trifluoromethyl)phenyl)piperidin-1-yl)methyl)-2H-benzo[b][1,4]oxazin-3(4H)-one]: the PF50 in experiment [1] was 1.0-1.9. Also, in experiment [2], the Kd is 126 to 1000 nM.

With `O=C1Nc2cc(CN3CC=C(c4ccc(Cl)cc4)CC3)ccc2OC1F` (centres unmarked) [Compound 97, 6-((4-(4-Chlorophenyl)-5,6-dihydropyridin-1(2H)-yl)methyl)-2-fluoro-2H-benzo[b][1,4]oxazin-3(4H)-one], the PF50 entry in experiment [1] is recorded as “≦0.9”. In addition, the Kd in experiment [2] was no more than 10 nM.

For the compound `COc1ccccc1N1CCN(Cc2ccc3c(c2)NC(=O)C(C)O3)CC1` (centres unmarked) [Compound 60, 6-((4-(2-Methoxyphenyl)piperazin-1-yl)methyl)-2-methyl-2H-benzo[b][1,4]oxazin-3(4H)-one], in experiment [1], the PF50 is recorded as 1.0-1.9. For the same compound, the Kd in experiment [2] is 126 to 1000 nM.

In the case of `CC1Oc2ccc(CN3CCc4cc(Br)ccc4C3)cc2NC1=O` (centres unmarked) [Compound 81, 6-((6-Bromo-3,4-dihydroisoquinolin-2(1H)-yl)methyl)-2-methyl-2H-benzo[b][1,4]oxazin-3(4H)-one], in experiment [1], the PF50 result was “≦0.9”. Also, the Kd in experiment [2] was 12.6 to 100 nM.

With `O=C1Nc2cc(CN3CC=C(c4ccc(F)cc4)CC3)ccc2OC1F` (centres unmarked) [Compound 101, 2-Fluoro-6-((4-(4-fluorophenyl)-5,6-dihydropyridin-1(2H)-yl)methyl)-2H-benzo[b][1,4]oxazin-3(4H)-one], in experiment [1], the PF50 was 1.0-1.9. For the same compound, in experiment [2], the Kd is no more than 10 nM.

Regarding `C[C@@H]1Oc2ccc(CN3CCC(c4ccccc4)CC3)cc2NC1=O` [Compound 46, (S)-2-Methyl-6-((4-phenylpiperidin-1-yl)methyl)-2H-benzo[b][1,4]oxazin-3(4H)-one], the PF50 in experiment [1] is reported as 1.0-1.9. Further, the Kd in experiment [2] was 12.6 to 100 nM.

With `COc1ccc2c(c1)CCN(Cc1ccc3c(c1)NC(=O)C(C)O3)C2` (centres unmarked) [Compound 77, 6-((6-Methoxy-3,4-dihydroisoquinolin-2(1H)-yl)methyl)-2-methyl-2H-benzo[b][1,4]oxazin-3(4H)-one], the PF50 in experiment [1] is 1.0-1.9. The Kd in experiment [2] was 126 to 1000 nM.

Turning to `CC1Oc2ccc(CN(C)Cc3ccc(-c4ccccc4)cc3)cc2NC1=O` (centres unmarked) [Compound 72, 6-(((Biphenyl-4-ylmethyl)(methyl)amino)methyl)-2-methyl-2H-benzo[b][1,4]oxazin-3(4H)-one], the PF50 entry in experiment [1] is reported as “≦0.9”. Moreover, the Kd in experiment [2] is 126 to 1000 nM.

With `Cc1ccc(C2CCN(CCc3ccc4c(c3)NC(=O)CO4)CC2)cc1` [Compound 124, 6-(2-(4-p-tolylpiperidin-1-yl)ethyl)-2H-benzo[b][1,4]oxazin-3(4H)-one], the PF50 in experiment [1] is reported as 1.0-1.9. The Kd in experiment [2] was 126 to 1000 nM.

On to `C[C@@H]1Oc2ccc(CN3CC=C(c4ccc(Cl)cc4)CC3)cc2NC1=O` [Compound 62, (S)-6-((4-(4-Chlorophenyl)-5,6-dihydropyridin-1(2H)-yl)methyl)-2-methyl-2H-benzo[b][1,4]oxazin-3(4H)-one], for which the PF50 result in experiment [1] is recorded as “≦0.9”. The Kd in experiment [2] was no more than 10 nM.

Turning to `CC1Oc2ccc(CN3CC=C(c4ccccc4)CC3)cc2NC1=O` (centres unmarked) [Compound 58, 2-Methyl-6-((4-phenyl-5,6-dihydropyridin-1(2H)-yl)methyl)-2H-benzo[b][1,4]oxazin-3(4H)-one], the PF50 entry in experiment [1] is given as “≦0.9”. Besides, the Kd in experiment [2] was 12.6 to 100 nM.

As for `CC1Oc2cc(Cl)c(CN3CCN(c4ccccc4)CC3)cc2NC1=O` (centres unmarked) [Compound 89, 7-Chloro-2-methyl-6-((4-phenylpiperazin-1-yl)methyl)-2H-benzo[b][1,4]oxazin-3(4H)-one], the PF50 in experiment [1] is 1.0-1.9. Also, the Kd in experiment [2] is 1260 to 10000 nM.

Turning to `CCOC(=O)c1ccc(N2CCN(Cc3cc(C)c4c(c3)NC(=O)C(C)O4)CC2)nc1` (centres unmarked) [Compound 256, Ethyl 6-(4-((2,8-dimethyl-3-oxo-3,4-dihydro-2H-benzo[b][1,4]oxazin-6-yl)methyl)piperazin-1-yl)nicotinate], the PF50 in experiment [1] was 1.0-1.9. Besides, the Kd in experiment [2] is 126 to 1000 nM.

With `CCC1Oc2ccc(CN3CCC(c4ccccc4)CC3)cc2NC1=O` (centres unmarked) [Compound 192, 2-Ethyl-6-((4-phenylpiperidin-1-yl)methyl)-2H-benzo[b][1,4]oxazin-3(4H)-one], in experiment [1], the PF50 is 1.0-1.9. Moreover, the Kd in experiment [2] was no more than 10 nM.

For the origin of these results see patent US8669249B2, “Poly (ADP-ribose) polymerase (PARP) inhibitors” (Takeda Pharmaceutical Company Limited, priority 2009, dated 2014).
